Test results from patent publication US5707615A, “Method of treating HIV infections with anti-viral formulations” (Merrell Pharmaceuticals Inc., priority 1997, dated 1998).

How the values were obtained:
MT4 cells = assay: Toxicity to MT4 cells (TD50, Table IV, MTT); format: cell-based; conditions: MT4 cells, 7 days, MTT
Protocol: (§1) Various oligomers were dissolved in RPMI and were then assayed for anti-HIV activity by making doubling dilutions of the solutions across a 96 well microtitre plate. To each well were then added 5×10^4 cells and 100 TCID50 of virus and the plates incubated at 37° C. for 7 days. MTT was added to each well and the plates incubated for a further 2 hours. The blue formazan crystals were dissolved using acidic isopropanol, and the absorbance measured at 540 nm.

HIV strain RF = assay: Ability to prevent virus-induced cell death using MT4 cells and strain RF (Example III); format: cell-based; conditions: MT4 cells, 7 days, MTT, 10080 min
Protocol: as §1

GB8 virus in JM cells = assay: Virus infection of JM cells with GB8 in the presence of test compounds: syncytia and P24 (Example II); conditions: for SYNCYTIA % / P24 %: % of control; for SYNCYTIA %: 2880 min; for P24 %: 5760 min
Protocol: Virus infection of JM cells was carried out in the presence of different concentrations of test compounds. JM cells (1×10^5) and 50-100 syncytial forming units of virus (GB8) were added to duplicate wells of a tissue culture plate containing 1 mL volumes of growth medium with or without drug. The plate was incubated for 2 days at 37° C. and then scored for the presence of syncytia. At the same time the cells were washed and the growth medium replaced. After a further two days incubation, the cell free supernatant fluids were harvested and assayed for levels of P24 viral core antigen using the Coulter™ HIV Antigen assay.

HIV-I (GB8) = assay: Pretreatment of JM cells and block of HIV-I (GB8) infection (Example IV); conditions: pretreated overnight at 20 μg/mL
Protocol: JM cells were pretreated overnight at 37° C. with different compounds at 20 μg/mL or left untreated. The cells were washed 3 times in RPMI medium and then infected with HIV-I (GB8) for 2 hours at room temperature. The cells were again washed 3 times in RPMI medium and resuspended in fresh medium prior to being distributed into duplicate wells and incubated at 37° C. After 2 days syncytia were scored and the cell free supernatant fluid harvested and assayed for P24 viral core antigen using the Coulter™ HIV antigen assay.

With “poly{imino[2,2'-disulfo(1,1'-biphenyl)-4,4'-diyl]iminocarbonyl-1,4-phenylenecarbonyl}, alpha-{[(4-methylphenyl)amino]carbonyl}-omega-[(4-methylphenyl)amino]- [Example 8A]” the TD50 (MT4 cells) was over 100 µg/mL, the ED50 (HIV strain RF) was 1.5 µg/mL and the P24 (GB8 virus in JM cells; Table II, 1 μg/mL) was 4.3 × 10^4 units/mL. The “SYNCYTIA (2 DAYS) MEAN” value (GB8 virus in JM cells; Table II, 1 μg/mL) was 3, the SYNCYTIA % (GB8 virus in JM cells; Table II, 1 μg/mL) was 7% and the P24 % (GB8 virus in JM cells; Table II, 1 μg/mL) was 12%. For the same substance, the P24 (GB8 virus in JM cells; Table II, 3 μg/mL) was 4.4 × 10^4 units/mL, the “SYNCYTIA (2 DAYS) MEAN” value (GB8 virus in JM cells; Table II, 3 μg/mL) was 0 and the SYNCYTIA % (GB8 virus in JM cells; Table II, 3 μg/mL) was 0%. The P24 % (GB8 virus in JM cells; Table II, 3 μg/mL) was 12%, the “SYNCYTIA (2 DAYS) MEAN” value (GB8 virus in JM cells; Table II, 10 μg/mL) was 0 and the SYNCYTIA % (GB8 virus in JM cells; Table II, 10 μg/mL) was 0%. The “SYNCYTIA (2 DAYS) MEAN” value (GB8 virus in JM cells; Table II, 30 μg/mL) was 0, the SYNCYTIA % (GB8 virus in JM cells; Table II, 30 μg/mL) was 0% and the “SYNCYTIA (2 DAYS) MEAN” value (GB8 virus in JM cells; Table II, 100 μg/mL) was 0. The SYNCYTIA % (GB8 virus in JM cells; Table II, 100 μg/mL) was 0%, the P24 (GB8 virus in JM cells; Table III, 5 μg/mL) was 268599 pg/mL and the “SYNCYTIA MEAN” value (GB8 virus in JM cells; Table III, 5 μg/mL) was 35. It also gave an SYNCYTIA % (GB8 virus in JM cells; Table III, 5 μg/mL) of 51%, a P24 % (GB8 virus in JM cells; Table III, 5 μg/mL) of 81% and a P24 (GB8 virus in JM cells; Table III, 50 μg/mL) of 11600 pg/mL. For the same substance, the “SYNCYTIA MEAN” value (GB8 virus in JM cells; Table III, 50 μg/mL) was 0, the P24 % (GB8 virus in JM cells; Table III, 50 μg/mL) was 3.5% and the “SYNCYTIA MEAN” value (GB8 virus in JM cells; Table III, 500 μg/mL) was 0.

With “poly[imino(2,5-disulfo-1,4-phenylene)iminocarbonyl], alpha-{[(4-methylphenyl)amino]carbonyl}-omega-[(4-methylphenyl)amino]- [Example 3A]” the TD50 (MT4 cells) was over 100 µg/mL, the P24 (HIV-I (GB8)) was 26880 pg/mL and the “MEAN SYNCYTIA” value (HIV-I (GB8); 2 days) was 153. It also gave a P24 % (HIV-I (GB8); % of control, 2880 min) of 95%, an SYNCYTIA % (HIV-I (GB8); % of control, 2880 min) of 129% and an ED50 (HIV strain RF) of over 10 µg/mL. The “SYNCYTIA (2 DAYS) MEAN” value (GB8 virus in JM cells; Table II, 0.6 μg/mL) was 51, the SYNCYTIA % (GB8 virus in JM cells; Table II, 0.6 μg/mL) was 120% and the P24 (GB8 virus in JM cells; Table II, 1.25 μg/mL) was 4.3 × 10^5 units/mL. The “SYNCYTIA (2 DAYS) MEAN” value (GB8 virus in JM cells; Table II, 1.25 μg/mL) was 20, the SYNCYTIA % (GB8 virus in JM cells; Table II, 1.25 μg/mL) was 48% and the P24 % (GB8 virus in JM cells; Table II, 1.25 μg/mL) was 100%. The P24 (GB8 virus in JM cells; Table II, 2.5 μg/mL) was 2.5 × 10^5 units/mL, the “SYNCYTIA (2 DAYS) MEAN” value (GB8 virus in JM cells; Table II, 2.5 μg/mL) was 38 and the SYNCYTIA % (GB8 virus in JM cells; Table II, 2.5 μg/mL) was 90%. For the same substance, the P24 % (GB8 virus in JM cells; Table II, 2.5 μg/mL) was 69%, the P24 (GB8 virus in JM cells; Table II, 5 μg/mL) was 3.6 × 10^5 units/mL and the “SYNCYTIA (2 DAYS) MEAN” value (GB8 virus in JM cells; Table II, 5 μg/mL) was 15. The SYNCYTIA % (GB8 virus in JM cells; Table II, 5 μg/mL) was 36%, the P24 % (GB8 virus in JM cells; Table II, 5 μg/mL) was 100% and the P24 (GB8 virus in JM cells; Table II, 10 μg/mL) was 4.1 × 10^4 units/mL. For the same substance, the “SYNCYTIA (2 DAYS) MEAN” value (GB8 virus in JM cells; Table II, 10 μg/mL) was 3, the SYNCYTIA % (GB8 virus in JM cells; Table II, 10 μg/mL) was 7% and the P24 % (GB8 virus in JM cells; Table II, 10 μg/mL) was 11%. For the same substance, the “SYNCYTIA (2 DAYS) MEAN” value (GB8 virus in JM cells; Table II, 20 μg/mL) was 5 and the SYNCYTIA % (GB8 virus in JM cells; Table II, 20 μg/mL) was 12%.
